Source: US12497365B2, “4-pyridinyl formamide compound or derivative thereof, preparation method therefor, herbicidal composition and use thereof” (Qingdao Kingagroot Chemical Compound Co., Ltd., priority 2019, dated 2025)

How the values were obtained:
Test in all cases: Weeding effect in post-emergence stage
Assay type in all cases: in vivo
Details in all cases: active ingredient 2000 g/ha, 3 weeks after application, fresh weight control rate
Abutilon theophrasti = tested on: Abutilon theophrasti
Summary of the method: (§1)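 Post-emergence spray, 2-3 leaf stage; acetone/Tween 80 formulation + methyl oleate EC synergist (1.5 liter/ha); 125-2000 g/ha via spray tower. Greenhouse, 3 wk. Read-out: fresh weight growth control rate, graded by activity level.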

[1] = tested on: Amaranthus retroflexus L.
Summary of the method: as §1

Chenopodium album = tested on: Chenopodium album
Summary of the method: as §1

Descurainia sophia = tested on: Descurainia sophia
Summary of the method: as §1

Row | SMILES | Weeding effect, activity level (growth control rate), Abutilon theophrasti (Abutilon theophrasti) | Weeding effect, activity level (growth control rate), Amaranthus retroflexus L. [1] | Weeding effect, activity level (growth control rate), Chenopodium album (Chenopodium album) | Weeding effect, activity level (growth control rate), Descurainia sophia (Descurainia sophia)
1 | Cn1nnnc1NC(=O)c1ccnc(-c2cc(C(F)(F)F)ccc2F)c1Cl [Compound 1-75] | 5 (Level 5: growth control rate is above 85%) | 5 (Level 5: growth control rate is above 85%) | 5 (Level 5: growth control rate is above 85%) | 5 (Level 5: growth control rate is above 85%)
2 | Cn1nnnc1NC(=O)c1ccnc(-c2ccc(C(F)(F)F)cc2C(F)(F)F)c1Cl [Compound 1-76] | 5 (Level 5: growth control rate is above 85%) | 5 (Level 5: growth control rate is above 85%) | 5 (Level 5: growth control rate is above 85%) | 5 (Level 5: growth control rate is above 85%)
3 | Cn1nnnc1NC(=O)c1ccnc(-c2cc(C(F)(F)F)cc(C(F)(F)F)c2)c1Cl [Compound 1-77] | 5 (Level 5: growth control rate is above 85%) | 5 (Level 5: growth control rate is above 85%) | 5 (Level 5: growth control rate is above 85%) | 5 (Level 5: growth control rate is above 85%)
4 | Cn1nnnc1NC(=O)c1ccnc(-c2ccc(C#N)cc2F)c1Cl [Compound 1-78] | 5 (Level 5: growth control rate is above 85%) | 5 (Level 5: growth control rate is above 85%) | 5 (Level 5: growth control rate is above 85%) | 5 (Level 5: growth control rate is above 85%)
5 | Cn1nnnc1NC(=O)c1ccnc(-c2ccc(C#N)c(F)c2)c1Cl [Compound 1-79] | 5 (Level 5: growth control rate is above 85%) | 5 (Level 5: growth control rate is above 85%) | 5 (Level 5: growth control rate is above 85%) | 5 (Level 5: growth control rate is above 85%)
6 | Cn1nnnc1NC(=O)c1ccnc(-c2cccc(C#N)c2F)c1Cl [Compound 1-80] | 5 (Level 5: growth control rate is above 85%) | 5 (Level 5: growth control rate is above 85%) | 5 (Level 5: growth control rate is above 85%) | 5 (Level 5: growth control rate is above 85%)
7 | Cn1nnnc1NC(=O)c1ccnc(-c2cc(F)cc(C#N)c2)c1Cl [Compound 1-81] | 5 (Level 5: growth control rate is above 85%) | 5 (Level 5: growth control rate is above 85%) | 5 (Level 5: growth control rate is above 85%) | 5 (Level 5: growth control rate is above 85%)
8 | Cn1nnnc1NC(=O)c1ccnc(-c2cc(C#N)ccc2F)c1Cl [Compound 1-82] | 5 (Level 5: growth control rate is above 85%) | 5 (Level 5: growth control rate is above 85%) | 5 (Level 5: growth control rate is above 85%) | 5 (Level 5: growth control rate is above 85%)
9 | Cn1nnnc1NC(=O)c1ccnc(-c2ccc(F)cc2C#N)c1Cl [Compound 1-83] | 5 (Level 5: growth control rate is above 85%) | 5 (Level 5: growth control rate is above 85%) | 5 (Level 5: growth control rate is above 85%) | 5 (Level 5: growth control rate is above 85%)
10 | Cn1nnnc1NC(=O)c1ccnc(-c2ccc(F)c(C#N)c2)c1Cl [Compound 1-84] | 5 (Level 5: growth control rate is above 85%) | 5 (Level 5: growth control rate is above 85%) | 5 (Level 5: growth control rate is above 85%) | 5 (Level 5: growth control rate is above 85%)
11 | Cn1nnnc1NC(=O)c1ccnc(-c2ccc(F)c(C(F)(F)F)c2)c1Cl [Compound 1-85] | 5 (Level 5: growth control rate is above 85%) | 5 (Level 5: growth control rate is above 85%) | 5 (Level 5: growth control rate is above 85%) | 5 (Level 5: growth control rate is above 85%)
12 | Cn1nnnc1NC(=O)c1ccnc(-c2ccc(Cl)cc2Cl)c1Cl [Compound 1-86] | 5 (Level 5: growth control rate is above 85%) | 5 (Level 5: growth control rate is above 85%) | 5 (Level 5: growth control rate is above 85%) | 5 (Level 5: growth control rate is above 85%)
13 | Cn1nnnc1NC(=O)c1ccnc(-c2cccc(Cl)c2Cl)c1Cl [Compound 1-87] | 5 (Level 5: growth control rate is above 85%) | 5 (Level 5: growth control rate is above 85%) | 5 (Level 5: growth control rate is above 85%) | 5 (Level 5: growth control rate is above 85%)
14 | Cn1nnnc1NC(=O)c1ccnc(-c2ccc(Cl)c(Cl)c2)c1Cl [Compound 1-88] | 5 (Level 5: growth control rate is above 85%) | 5 (Level 5: growth control rate is above 85%) | 5 (Level 5: growth control rate is above 85%) | 5 (Level 5: growth control rate is above 85%)
15 | Cn1nnnc1NC(=O)c1ccnc(-c2cc(Cl)cc(Cl)c2)c1Cl [Compound 1-89] | 5 (Level 5: growth control rate is above 85%) | 5 (Level 5: growth control rate is above 85%) | 5 (Level 5: growth control rate is above 85%) | 5 (Level 5: growth control rate is above 85%)
16 | Cn1nnnc1NC(=O)c1ccnc(-c2cc(F)cc(Cl)c2)c1Cl [Compound 1-90] | 5 (Level 5: growth control rate is above 85%) | 5 (Level 5: growth control rate is above 85%) | 5 (Level 5: growth control rate is above 85%) | 5 (Level 5: growth control rate is above 85%)
17 | Cn1nnnc1NC(=O)c1ccnc(-c2ccc(Cl)c(F)c2)c1Cl [Compound 1-91] | 5 (Level 5: growth control rate is above 85%) | 5 (Level 5: growth control rate is above 85%) | 5 (Level 5: growth control rate is above 85%) | 5 (Level 5: growth control rate is above 85%)
18 | Cn1nnnc1NC(=O)c1ccnc(-c2ccc(F)c(Cl)c2)c1Cl [Compound 1-92] | 5 (Level 5: growth control rate is above 85%) | 5 (Level 5: growth control rate is above 85%) | 5 (Level 5: growth control rate is above 85%) | 5 (Level 5: growth control rate is above 85%)
19 | Cn1nnnc1NC(=O)c1ccnc(-c2cccc(Cl)c2F)c1Cl [Compound 1-93] | 5 (Level 5: growth control rate is above 85%) | 5 (Level 5: growth control rate is above 85%) | 5 (Level 5: growth control rate is above 85%) | 5 (Level 5: growth control rate is above 85%)
20 | Cn1nnnc1NC(=O)c1ccnc(-c2ccc(F)cc2Cl)c1Cl [Compound 1-94] | 5 (Level 5: growth control rate is above 85%) | 5 (Level 5: growth control rate is above 85%) | 5 (Level 5: growth control rate is above 85%) | 5 (Level 5: growth control rate is above 85%)
21 | Cn1nnnc1NC(=O)c1ccnc(-c2ccc(Cl)cc2F)c1Cl [Compound 1-95] | 5 (Level 5: growth control rate is above 85%) | 5 (Level 5: growth control rate is above 85%) | 5 (Level 5: growth control rate is above 85%) | 5 (Level 5: growth control rate is above 85%)
